The results in this text go back to CN116283752A (priority 2023, dated 2023).

Common to all, as to format: cell-based
The subject of test [1] is autoluminescent Mycobacterium tuberculosis H37Ra [自主发光Mtb H37Ra]. Kind of test: microbe, parasite or virus in culture.
In test [2] the test system is Mycobacterium tuberculosis H37Ra [结核分枝杆菌H37Ra].
Test [3] deals with wild-type Mycobacterium tuberculosis H37Rv [野生型结核分枝杆菌(H37Rv)]. Kind of test: microbe, parasite or virus in culture. As to conditions: Alamar Blue, 37℃, 10 days + 1 day; for MIC: compound alone; for MIC + TB47: with TB47 0.003 μg/mL. (Resazurin is reduced to fluorescent resorufin, in cell work by metabolically active cells.)
Setting [4] is: Mycobacterium tuberculosis, H37RA, read-out: MIC.
Setting [5] is: Mycobacterium tuberculosis, read-out: MIC.

The structures appear in SMILES notation. In brackets after ≈: the same amount, converted by molar mass. Read-outs that look alike come from different tables or passages of the source.

`O=C(Nc1cncc(C(F)(F)F)c1)c1cc(Cl)ccc1O` [compound 5, 5-氯-2-羟基-N-(5-三氟甲基-3-吡啶基)-苯甲酰胺]: the MIC in test [1] (setting [4]) came out at 5 µg/mL (≈ 15.8 µM).
For `O=C(Nc1cc(Cl)nc(Cl)c1)c1cc(Cl)ccc1O` [compound 6, 5-氯-N-(2,6-二氯-4-吡啶基)-2-羟基苯甲酰胺], the “MIC in synergy with TB47” value in test [2] stood at 0.625 µg/mL. In addition, the MIC in test [1] and in test [1] (setting [4]) was 1.25 µg/mL (≈ 3.94 µM) each time.
As to `O=C(Nc1cnc(Cl)cn1)c1cc(Cl)ccc1O` [compound 9, 5-氯-N-(5-氯-2-吡嗪基)-2-羟基苯甲酰胺], the MIC in test [1] (setting [4]) was determined as 4 µg/mL (≈ 14.1 µM).
Turning to `O=C(Nc1ncc(Cl)cn1)c1cc(Cl)ccc1O` [compound 12, 5-氯-N-(5-氯-2-嘧啶基)-2-羟基苯甲酰胺], the MIC in test [1] (setting [4]) was 5 µg/mL (≈ 17.6 µM).
The same measure, in the same setting: the result for `O=C(Nc1cnc(Cl)nc1)c1cc(Cl)ccc1O` [compound 13, 5-氯-N-(2-氯-5-嘧啶基)-2-羟基苯甲酰胺] reads 5 µg/mL (≈ 17.6 µM).
On the same count and under the same terms, the result for `O=C(Nc1cc(Cl)ncn1)c1cc(Cl)ccc1O` [compound 14, 5-氯-N-(6-氯-4-嘧啶基)-2-羟基苯甲酰胺] reads 2.5 µg/mL (≈ 8.8 µM); that for `O=C(Nc1nccc(C(F)(F)F)n1)c1cc(Cl)ccc1O` [compound 15, 5-氯-2-羟基-N-(4-三氟甲基-2-嘧啶基)-苯甲酰胺], 5 µg/mL (≈ 15.7 µM).
For `O=C(Nc1cc(C(F)(F)F)ncn1)c1cc(Cl)ccc1O` [compound 16, 5-氯-2-羟基-N-(6-三氟甲基-4-嘧啶基)-苯甲酰胺], the “MIC in synergy with TB47” value in test [2] was 0.625 µg/mL. Moreover, the MIC in test [1] and in test [1] (setting [4]) was 2.5 µg/mL (≈ 7.87 µM) throughout.
As for `O=C(Nc1nc2ccc(OC(F)(F)F)cc2s1)c1cc(Cl)ccc1O` [compound 17, 5-氯-2-羟基-N-(6-三氟甲氧基-2-苯并噻唑基)-苯甲酰胺], in test [1] (setting [4]), the MIC was found to be 10 µg/mL (≈ 25.7 µM).
Same read-out and setting: the result for `O=C(Nc1ccc(Cl)nn1)c1cc(Cl)ccc1O` [compound 19, 5-氯-N-(6-氯-3-哒嗪基)-2-羟基苯甲酰胺] reads 10 µg/mL (≈ 35.2 µM); that for `O=C(Nc1nnc(C(F)(F)F)s1)c1cc(Cl)ccc1O` [compound 20, 5-氯-2-羟基-N-[5-三氟甲基-2-(1,3,4-噻二唑基)]-苯甲酰胺], 10 µg/mL (≈ 30.9 µM).
On to `O=C(Nc1ncc(Cl)s1)c1cc(Cl)ccc1O` [compound 21, 5-氯-N-(5-氯-2-噻唑基)-2-羟基苯甲酰胺], for which, in test [1] (setting [4]), the MIC turned out to be 5 µg/mL (≈ 17.3 µM).
Consider `O=C(Nc1ccc(Cl)cn1)c1cc(Cl)ccc1O` [化合物1, 5-氯-N-(5-氯-2-吡啶基)-2-羟基苯甲酰胺], for which the MIC in test [1] (setting [4]) came out at 5 µg/mL (≈ 17.7 µM).
As to `O=C(Nc1ccc(C(F)(F)F)cn1)c1cc(Cl)ccc1O` [化合物2, 5-氯-2-羟基-N-(5-三氟甲基-2-吡啶基)-苯甲酰胺], the MIC in test [1] and in test [1] (setting [4]) was 1.25 µg/mL (≈ 3.95 µM) throughout.
For the compound `O=C(Nc1ccc(C(F)(F)F)nc1)c1cc(Cl)ccc1O` [化合物3, 5-氯-2-羟基-N-(6-三氟甲基-3-吡啶基)-苯甲酰胺], in test [2], the “MIC in synergy with TB47” value came to 0.25 µg/mL. The MIC in test [1] was 4 µg/mL (≈ 12.6 µM); in test [1] (setting [4]), 4 µg/mL (≈ 12.6 µM); in test [3] (setting [5]) it was 4 µg/mL. In test [3], the “MIC + TB47” value stood at 0.5 µg/mL.
As for `O=C(Nc1ccnc(C(F)(F)F)c1)c1cc(Cl)ccc1O` [化合物4, 5-氯-2-羟基-N-(2-三氟甲基-4-吡啶基)-苯甲酰胺], in test [2], the “MIC in synergy with TB47” value came to 0.625 µg/mL. The MIC was 1.25 µg/mL (≈ 3.95 µM) in test [1], 1.25 µg/mL (≈ 3.95 µM) in test [1] (setting [4]), 2 µg/mL in test [3] (setting [5]) and 2 µg/mL in test [3]. In addition, the “MIC + TB47” value in test [3] was less than 0.125 µg/mL.
In the case of `O=C(Nc1cnc(Cl)c(Cl)c1)c1cc(Cl)ccc1O` [化合物7, 5-氯-N-(5,6-二氯-3-吡啶基)-2-羟基苯甲酰胺], the MIC in test [1] (setting [4]) worked out at 2.5 µg/mL (≈ 7.87 µM); in test [3] (setting [5]), 4 µg/mL. In test [3], the “MIC + TB47” value was 0.25 µg/mL.
As to `O=C(Nc1ccc(Cl)nc1Cl)c1cc(Cl)ccc1O` [化合物8, 5-氯-N-(2,6-二氯-3-吡啶基)-2-羟基苯甲酰胺], the “MIC in synergy with TB47” value in test [2] was determined as 0.625 µg/mL. Further, the MIC in test [1] came out at 2.5 µg/mL (≈ 7.87 µM); in test [1] (setting [4]), 2.5 µg/mL (≈ 7.87 µM); in test [3] (setting [5]), 4 µg/mL. Moreover, the “MIC + TB47” value in test [3] is 0.25 µg/mL.
Regarding `O=C(Nc1cncc(Cl)n1)c1cc(Cl)ccc1O` [化合物10, 5-氯-N-(6-氯-2-吡嗪基)-2-羟基苯甲酰胺], the MIC in test [1] (setting [4]) was found to be 2.5 µg/mL (≈ 8.8 µM); in test [3] (setting [5]) it was 4 µg/mL. Moreover, the “MIC + TB47” value in test [3] came to 0.25 µg/mL.
On to `O=C(Nc1cnc(C(F)(F)F)cn1)c1cc(Cl)ccc1O` [化合物11, 5-氯-2-羟基-N-(5-三氟甲基-2-吡嗪基)-苯甲酰胺], for which, in test [2], the “MIC in synergy with TB47” value was 0.625 µg/mL. Further, the MIC in test [1] came out at 1.25 µg/mL (≈ 3.94 µM); in test [1] (setting [4]) it was 1.25 µg/mL (≈ 3.94 µM); in test [3] (setting [5]) it was 2 µg/mL; in test [3] it was 2 µg/mL. Moreover, in test [3], the “MIC + TB47” value was less than 0.125 µg/mL.
Turning to `O=C(Nc1nc2ccc(C(F)(F)F)cc2s1)c1cc(Cl)ccc1O` [化合物18, 5-氯-2-羟基-N-(6-三氟甲基-2-苯并噻唑基)-苯甲酰胺], in test [2], the “MIC in synergy with TB47” value came out at 0.625 µg/mL. Also, the MIC in test [1] and in test [1] (setting [4]) was 5 µg/mL (≈ 13.4 µM) each time.
